This is an account of results in patent US12203088B2, “Root-secreted peptide PEP1 in rice and gene encoding the same and use thereof” (ZHEJIANG UNIVERSITY, priority 2021, dated 2025).

The subject of assay [1] is OsPEP1 overexpressing transgenic plants. Nature of the assay: Exogenous PEP1 on root tips of OsPEP1 overexpressing transgenic plants. The class given is in vivo, rice Xiushui 134. The following applies: transgenic plant OE2, 10^−6 M PEP1 for 2 days. An excerpt:
(§1) E is the statistics of the apical meristem length indicated in D. Data are means±SD (n≥15 independent seedlings, three biological replicates). Different letters indicate significant differences (P<0.01, ANOVA, LSD test);
F is the statistics of the cell length in the elongation zone indicated in D. Data are means±SD (n≥15 independent seedlings, three biological replicates). Different letters indicate significant differences (P<0.01, ANOVA, LSD test).
In the obtained T2 OsPEP1 overexpressing transgenic rice plants, three representative plants (OE1, OE2, OE3) were chosen for phenotypic analysis. […] The relative expression levels of endogenous OsPEP1 in Xiushui 134 and OsPEP1 overexpressing transgenic plants (OE1, OE2, OE3) were analyzed by quantitative real-time PCR (primers: […] (SEQ ID NO: 9); […] (SEQ ID NO: 10)).

For assay [2], the system named is rice seedlings. Nature of the assay: Treatment of rice seedlings with synthetic PEP1, primary root length. The class given is in vivo, Oryza sativa L. ssp. Japonica cv. Xiushui134. The following applies: wild-type seedlings, different concentrations of synthetic PEP1, treatment from sowing for 7 days. An excerpt:
Different letters indicate significant differences (P<0.01, ANOVA, LSD test);

Assay [3] deals with rice root tips. Nature of the assay: Root tip longitudinal sections of wild-type rice after PEP1 treatment. The following applies: wild-type plants. It is filed as in vivo, Oryza sativa L. ssp. Japonica cv. Xiushui134. On the set-up: length of cells in the elongation zone of rice root tips: dose or concentration left out as unconfirmed.
Assay [4] concerns OsPEP1 RNAi transgenic plants. Nature of the assay: Exogenous PEP1 on root tips of OsPEP1 RNAi transgenic plants. It is filed as in vivo, rice Xiushui 134. The following applies: transgenic plant Ri2, 10^−6 M PEP1 for 2 days.
Source text: D is the longitudinal phenotype of the root tip elongation zone (top) and meristem (bottom) of the wild-type WT and the transgenic plant Ri2 […] treated with 10^−6 M PEP1 for 2 days. Bar=100 μm;
as §1
F is the statistics of cell length in the elongation zone indicated in D. Data are means±SD (n≥15 independent seedlings, three biological replicates). Different letters indicate significant differences (P<0.01, ANOVA, LSD test).
In the obtained T2 OsPEP1 RNAi transgenic plants, three representative plants (Ri1, Ri2, Ri3) were selected for phenotypic analysis. […] The relative expression levels of endogenous OsPEP1 in Xiushui 134 and those OsPEP1 RNAi transgenic plants (Ri1, Ri2, Ri3) were analyzed by quantitative real-time PCR (primers: […] (SEQ ID NO: 9); […] (SEQ ID NO: 10)). […] Additionally, exogenous application of PEP1 could restore the root tip defected phenotype of OsPEP1 RNAi transgenic plants to the Xiushui 134 level (D-F in FIG. 5).

For the substance “Ser-Asp-Phe-Asp-Arg (SDFDR; Amino acid sequence of PEP1) [rice root-secreted peptide of five amino acids, artificially synthesized for exogenous application]”, the “restoration of root tip defected phenotype to the Xiushui 134 level” value is listed as “could not restore” in assay [1] and “could restore” in assay [4]. Besides, in assay [2], the “rice primary root elongation” value is reported as “significantly inhibited rice primary root elongation”. Besides, in assay [3] (106 M PEP1 for 2 days), the “length of the meristem of rice root tips” value was “significantly shortened”. In addition, the “length of cells in the elongation zone of rice root tips” value in assay [3] (PEP1 for 2 days) is recorded as “significantly shortened”. Besides, the “changes in the quiescent center” value in assay [3] (root section after PEP1 treatment) is “no significant changes”.
